US7084158B2, “Substituted propargylamines” (Bayer Cropscience S.A., priority 2001, dated 2006)

Tests used:
Assay type in all cases: in vivo
Parameters in all cases: key: compounds were considered to be active when, at a concentration of 500 ppm or less, they had an activity on the harmful organisms of 50% or more
[1] = system: Heliothis virescens; experiment: Example B: tobacco budworm eggs on filter paper/insect diet, mortality; settings: 500 ppm or less; 24-hour-old eggs dipped, diet treated; after 6 days
[2] = system: Carpocapsa pomonella; experiment: Example D: dipped apples, codling moth L1 larvae mortality; settings: 500 ppm or less, after 14 days
Method: Apples were dipped into an aqueous solution of the formulated compound to be examined. The apples were then populated with 10 L1 larvae of the codling moth (Carpocapsa pomonella). After 14 days of storage at about 25° C., the effect of the compound on the larvae was determined (mortality). The compounds of the following examples were active: Nos. 14, 15, 17, 18, 70, 1007, 1008, 1009, 1036, 1038, 197.

[3] = system: Diabrotica undecimpunctata; experiment: Example C: corn rootworm eggs with maize corn, mortality; settings: 500 ppm or less; 4-5-day-old eggs; after 6 days
[4] = system: Nilaparvata lugens; experiment: Example A: rice leaf dip, leafhopper larvae mortality; settings: 500 ppm or less; L3 larvae on dipped rice plants; after 6 days
Method: The leaves of 12 rice plants having a stem length of 8 cm were dipped for 5 seconds into an aqueous solution of the formulated compound to be examined. After the solution had run off, the rice plants treated in this manner were placed into a Petri dish and populated with about 20 larvae (L3 stage) of the rice leafhopper species Nilaparvata lugens. The Petri dish was closed and then stored in a climatized chamber (16 hours of light/day, 25° C., 40–60% relative atmospheric humidity). After 6 days of storage, the mortality among the leafhopper larvae was determined. The compounds of the following examples were active: Nos. 29, 32, 42, 43, 51, 70, 84, 1002, 1004, 1005, 1040, 180, 184, 193, 197, 203, 209, 1059, 264, 265, 1066.

[5] = system: Spodoptera littoralis; experiment: Example G: treated L2 larvae and insect diet, Egyptian cotton leafworm mortality; settings: 500 ppm or less, after 6 days
Method: A Petri dish whose bottom was covered with filter paper and which contained about 5 ml of insect diet is prepared. Five L2 larvae of the Egyptian cotton leafworm (Spodoptera littoralis) were counted into a small beaker. 200 μl of an aqueous solution of the formulated preparation to be examined were pipetted into the beaker. The treated larvae were then poured into the Petri dish, and a further 200 μl of the aqueous solution were distributed over the insect diet. The Petri dish was closed and then stored at about 25° C. in a climatized chamber. After 6 days of storage, the effect of the compound on the larvae was determined (mortality). The compounds of the following examples were active: 29, 70, 60, 159, 1005, 1040, 1042, 1044, 1045, 1046, 1047.

[6] = system: Meloidogyne incognita; experiment: Example H: root gall nematode larvae immobilization (contact activity); settings: 500 ppm or less; 2nd stage larvae; 6 days permanent exposure
Method: In a glass vessel, an aqueous solution of the formulated compound to be examined was added to about 3000 freshly hatched active (mobile) larvae (2nd development stage) of the root gall nematode (Meloidogyne incognita) (final volume 20 ml). After 6 days of permanent exposure of the nematode larvae, the percentage of the individual larvae immobilized by the activity of the compound was determined in comparison to the untreated controls (contact activity). The compounds of the following examples were active: 39, 52, 159, 161, 162, 163, 164, 165, 1045, 1046, 1047, 179, 183, 187, 1048, 298, 206, 208, 227, 230, 1061, 237, 238, 245, 250, 255, 256, 260, 268, 269, 274, 275, 288, 290.

[7] = system: Spodoptera exigua; experiment: Example S: treated L2 larvae and insect diet, sugar beet army worm mortality; settings: 500 ppm or less, after 6 days
Method: A Petri dish whose bottom was covered with filter paper and which contains about 5 ml of insect diet is prepared. Five L2 larvae of sugar beet army worm (Spodoptera exigua) were counted into a small beaker. 200 μl of an aqueous solution of the formulated compound to be examined were pipetted into the beaker. The treated larvae were then poured into the Petri dish and a further 200 μl of the aqueous solution were distributed over the insect diet. The Petri dish was closed and then stored at 25° C. in a climatized chamber. After 6 days of storage, the mortality among the larvae was determined. The following examples were active: 1036, 175, 184, 1051, 1054, 1055, 234, 1057, 1059, 1060, 1063, 243, 245, 251, 257, 259, 266, 1065, 1067, 290, 291.

[8] = system: Aedes aegypti; experiment: Example AG: microtiter plate, yellow fever mosquito larvicidal activity; settings: 500 ppm or less, after 3 days

| Structure (SMILES) | effect on the eggs and hatched larvae (mortality) [1] | percentage of larvae immobilized (contact activity) [6] | further results |
| --- | --- | --- | --- |
| CC1CCN(CC#Cc2ccc(Cl)c(C(F)(F)F)c2)CC1 [Example 14] | active |  | effect on the larvae (mortality) [2]: active |
| CC1CCN(CC#Cc2ccc(Cl)c(Cl)c2Cl)CC1 [Example 15] | active |  | effect on the larvae (mortality) [2]: active |
| COc1c(Cl)cc(C#CCN2CCC(C)CC2)cc1Cl [Example 17] | active |  | effect on the eggs and hatched larvae (mortality) [3]: active; effect on the larvae (mortality) [2]: active |
| CC1CCN(CC#Cc2ccc(C(F)(F)F)cc2)CC1 [Example 29] | active |  | mortality among the leafhopper larvae [4]: active; effect on the larvae (mortality) [5]: active |
| CCC1CCCN(CC#Cc2cc(C(F)(F)F)cc(C(F)(F)F)c2)C1 (stereo not drawn) [Example 32] | active |  | mortality among the leafhopper larvae [4]: active; effect on the eggs and hatched larvae (mortality) [3]: active |
| CC1CCCCN1CC#Cc1cc(C(F)(F)F)cc(C(F)(F)F)c1 (stereo not drawn) [Example 39] |  | active |  |
| FC(F)(F)c1cc(C#CCN2CCCC3CCCCC32)cc(C(F)(F)F)c1 (stereo not drawn) [Example 42] |  |  | mortality among the leafhopper larvae [4]: active |
| CN1CCN(CC#Cc2cc(C(F)(F)F)cc(C(F)(F)F)c2)CC1 [Example 51] |  |  | mortality among the leafhopper larvae [4]: active |
| CN1CCN(CC#Cc2ccc(C(F)(F)F)cc2)CC1 [Example 52] |  | active |  |
| CC1(C)CCCC(C)(C)N1CC#Cc1ccccc1 [Example 84] |  |  | mortality among the leafhopper larvae [4]: active |
| CSc1nc(C#CCN2CC(C)CC(C)C2)cc(C(F)(F)F)n1 (stereo not drawn) [Example 159] |  | active | effect on the larvae (mortality) [5]: active |
| Cc1nc(C#CCN2CCC(C)CC2)cc(C(F)(F)F)n1 [Example 161] |  | active |  |
| CSc1nc(C#CCN2CCCCCC2)cc(C(F)(F)F)n1 [Example 164] |  | active |  |
| CC1CCN(CC#Cc2nc(C(F)(F)F)ccc2C(F)(F)F)CC1 [Example 165] |  | active |  |
| Cc1cc(C)cc(-c2ccc(C#CCN3CCC(C)CC3)cc2)c1 [Example 175] | active |  | mortality among the larvae [7]: active |
| Cc1ccc([N+](=O)[O-])cc1-c1ccc(C#CCN2CCC(C)CC2)cc1 [Example 179] | active | active |  |
| CC1CCN(CC#Cc2ccc(-c3cccc(Cl)c3Cl)cc2)CC1 [Example 180] | active |  | mortality among the leafhopper larvae [4]: active |
| Cc1ccccc1-c1ccc(C#CCN2CCC(C)CC2)cc1 [Example 183] | active | active |  |
| CC1CCN(CC#Cc2ccc(-c3cccnc3Cl)cc2)CC1 [Example 187] |  | active |  |

| Structure (SMILES) | effect on the eggs and hatched larvae (mortality) [1] | percentage of larvae immobilized (contact activity) [6] | further results |
| --- | --- | --- | --- |
| CC1CCN(CC#Cc2cc(C(F)(F)F)ccn2)CC1 [Example 203] | active |  | mortality among the leafhopper larvae [4]: active; effect on the eggs and hatched larvae (mortality) [3]: active |
| CC1CCN(CC#Cc2ccc([N+](=O)[O-])s2)CC1 [Example 208] |  | active |  |
| CC1CCN(CC#Cc2cccc(-c3nccs3)c2)CC1 [Example 227] |  | active |  |
| CC1CCN(CC#Cc2ccc(-c3ccc(F)cc3)s2)CC1 [Example 230] | active | active |  |
| CC1CCN(CC#Cc2cc(C(F)(F)F)cc(Cl)n2)CC1 [Example 234] | active |  | effect on the eggs and hatched larvae (mortality) [3]: active; mortality among the larvae [7]: active; larvicidal activity [8]: active |
| Cc1cc(C#CCN2CCC(C)CC2)sc1-c1ccc(-c2ccccc2)cc1 [Example 237] |  | active |  |
| Cc1cc(C#CCN2CCC(C)CC2)sc1-c1ccsc1 [Example 238] |  | active |  |
| CC1CCN(CC#Cc2ccc(-c3ccccc3Cl)s2)CC1 [Example 243] |  |  | mortality among the larvae [7]: active |
| CC1CCN(CC#Cc2ccc(-c3ccc(Cl)cc3)s2)CC1 [Example 245] | active | active | mortality among the larvae [7]: active; larvicidal activity [8]: active |
| CCc1ccc(C#CCN2CCC(C)CC2)cc1C(F)(F)F [Example 264] |  |  | mortality among the leafhopper larvae [4]: active; larvicidal activity [8]: active |
| CC1CCN(CC#Cc2ccc(-c3ccc(Cl)cc3Cl)s2)CC1 [Example 274] |  | active |  |
| CC1CCN(CC#Cc2ccc(C=O)s2)CC1 [Example 298] |  | active | effect on the eggs and hatched larvae (mortality) [3]: active |
| CC1CCN(CC#Cc2ccc(C(F)(F)F)cc2)CC1.Cl [Example 1042] | active |  | effect on the eggs and hatched larvae (mortality) [3]: active; effect on the larvae (mortality) [5]: active |
| C[C@@H]1C[C@H](C)CN(CC#Cc2cc(C(F)(F)F)cc(C(F)(F)F)c2)C1.Cl [Example 1044] | active |  | effect on the larvae (mortality) [5]: active |
| CC1CCN(CC#Cc2cc(C(F)(F)F)cc(C(F)(F)F)n2)CC1.CCCCCCCCC(=O)O [Example 1045] | active | active | effect on the larvae (mortality) [5]: active |
| CC1CCN(CC#Cc2cc(C(F)(F)F)cc(C(F)(F)F)n2)CC1.O=C(O)C(F)(F)F [Example 1046] | active | active | effect on the larvae (mortality) [5]: active |
| CC1CCN(CC#Cc2ccc(C(F)(F)F)c(Cl)n2)CC1.Cl [Example 1048] | active | active |  |
| CC1CCN(CC#Cc2cc(C(F)(F)F)cc(C(F)(F)F)n2)CC1.CCS(=O)(=O)O [Example 1060] | active |  | effect on the eggs and hatched larvae (mortality) [3]: active; mortality among the larvae [7]: active; larvicidal activity [8]: active |
| CC1CCN(CC#Cc2ccc(Br)c(C(F)(F)F)c2)CC1.O=C(O)/C=C\C(=O)O [Example 1066] |  |  | mortality among the leafhopper larvae [4]: active; effect on the eggs and hatched larvae (mortality) [3]: active; larvicidal activity [8]: active |
